Laboratory results: patent US20040229268A1, “Method and kit for identifying antibiotic-resistant microorganisms” (priority 2003, published 2004)

Assays:
[1] = system: VanA and VanB gene sequences; experiment: HPA for detecting VanA and VanB gene sequences (Example 12); format: binding, E. faecalis, E. faecium
Procedure: Double-stranded plasmids harboring inserts of either VanA or VanB gene sequences were prepared for use as control templates. More specifically, VanA gene sequences were amplified in a PCR protocol using primers having the sequences of VanA(+)464 Kpn and VanA(−)1325Bam. Similarly, VanB gene sequences were amplified using primers having the sequences of VanB(+)084 Kpn and VanB(−)1006Bam. Genomic DNA samples from bacteria known to have VanA or VanB genotypes were used as templates in the amplification reactions. Blunt-ended amplification products containing VanA gene sequences were ligated into a pPCR-[…] SK(+) (Stratagene; La Jolla, Calif.) plasmid cloning vector, and propagated in E. coli host bacteria using procedures that will be familiar to those having an ordinary level of skill in the art. Double-stranded amplification products containing VanB gene sequences were first digested with KpnI and BamHI, and then ligated into a similarly cleaved pBLUESCRIPT-II KS(+) (Stratagene; La Jolla, Calif.) plasmid cloning vector. Isolated double-stranded plasmid DNA served as controls in hybridization assays.
2′-deoxy probes having the sequences presented under Example 10 were prepared by standard phosphoramidite synthesis. AE labeling of the probes also was performed using standard procedures, as described herein and as will be familiar to those having an ordinary level of skill in the art. Samples of four different cultured VRE bacteria described under the previous Example were lysed essentially as described above. RNA in the samples was hydrolyzed and DNA denatured by incubation of the lysate with hydroxide at elevated temperature. In parallel procedures, samples of two plasmid clones harboring either the VanA or VanB inserts (as described under the previous Example) were also treated to denature DNA. All samples were neutralized by addition of a buffered HCl reagent. AE-labeled probes were added to each of the samples and then hybridized at 55-60° C. for 45 minutes to permit formation of complementary probe:target duplexes. The pan-bacterial probe (Probe Reagent 1, GEN-PROBE® MTC-NI Kit, catalog no. 4573) described under Example 2 was used as a positive control to confirm the presence of bacterial nucleic acid targets. Trials containing labeled probe in the absence of an added target (i.e., “probe alone”) served as negative controls. The AE label joined to probe molecules that remained single-stranded following the hybridization procedure were destroyed by treatment under mild alkaline conditions, and the extent of specific hybrid formation quantified by luminometry as described in the foregoing Examples.

[2] = system: mecA gene; Staphylococcus spp. and S. aureus ribosomal nucleic acids; experiment: HPA probe panel on clinical and ATCC isolates (Examples 8-9); format: binding
Procedure: Oxacillin MIC results were provided by an outside laboratory. The GP Probe results were determined as described in Example 8.

CCAAGCACCCGATATACTTTCTTTGCC (DNA, backbone and methylation of C not given here; further chemistry not fully specified; listed as Enterococcus faecalis) [VanB(−)1006]
Probe Hybridization (in RLU) ([1]; ATCC 51299 (VanB), E. faecalis lysate): 8335 RLU
Probe Hybridization (in RLU) ([1]; ATCC 51575 (VanB), E. faecalis lysate): 6300 RLU
Probe Hybridization (in RLU) ([1]; ATCC 700221 (VanA), E. faecium lysate): 1485 RLU
Probe Hybridization (in RLU) ([1]; ATCC 700802 (VanB), E. faecalis lysate): 9116 RLU
Probe Hybridization (in RLU) ([1]; Probe Alone (no added target)): 586 RLU
Probe Hybridization (in RLU) ([1]; VanA clone (plasmid)): 1708 RLU
Probe Hybridization (in RLU) ([1]; VanB clone (plasmid)): 27493 RLU
hybridization signal (in words) ([1]; samples containing nucleic acids from VanB-positive VRE bacteria): very strong signals

CCACTCAAGAGAGACAACATTTTCGACTAC (AE label linker 22/23, with helper oligonucleotides, chemistry not fully specified; listed as Staphylococcus aureus) [S. aureus]
HPA Results (# positive for indicated probes) ([2]; ATCC MRSA, 1 isolate, Oxacillin MIC 16 μg/ml): 1
HPA Results (# positive for indicated probes) ([2]; ATCC MSSA, 1 isolate, Oxacillin MIC 1 μg/ml): 1
HPA Results (# positive for indicated probes) ([2]; ATCC MSSA, 4 isolates, Oxacillin MIC 0.5 μg/ml): 4
HPA Results (# positive for indicated probes) ([2]; ATCC MSSA, 6 isolates, Oxacillin MIC ≦0.25 μg/ml): 6
HPA Results (# positive for indicated probes) ([2]; Clinical MRSA, 8 isolates, Oxacillin MIC 16 μg/ml): 8
HPA Results (# positive for indicated probes) ([2]; Clinical MRSA, 107 isolates, Oxacillin MIC >16 μg/ml): 107
HPA Results (# positive for indicated probes) ([2]; Clinical MSSA, 28 isolates, Oxacillin MIC 0.5 μg/ml): 28
HPA Results (# positive for indicated probes) ([2]; Clinical MSSA, 99 isolates, Oxacillin MIC ≦0.25 μg/ml): 99
HPA Results (RLU) ([2]; GP21 (S. aureus, mecA(−), MSSA)): 351348 RLU
HPA Results (RLU) ([2]; GP22 (CoNS, mecA(+))): 7637 RLU
HPA Results (RLU) ([2]; GP23 (S. aureus, mecA(−))): 280428 RLU
HPA Results (RLU) ([2]; GP24 (S. aureus, mecA(+))): 274112 RLU
HPA Results (RLU) ([2]; GP25 (S. aureus, mecA(+))): 408938 RLU
HPA Results (RLU) ([2]; GP26 (S. aureus, mecA(−))): 241597 RLU
HPA Results (RLU) ([2]; GP27 (CoNS, mecA(−))): 7057 RLU
HPA Results (RLU) ([2]; GP28 (S. aureus, mecA(−))): 195759 RLU
HPA Results (RLU) ([2]; GP29 (S. aureus, mecA(+))): 416372 RLU
HPA Results (RLU) ([2]; GP30 (S. aureus, mecA(−))): 399498 RLU
HPA Results (RLU) ([2]; GP31 (S. aureus, mecA(+))): 332750 RLU
HPA Results (RLU) ([2]; GP32 (S. aureus, mecA(−))): 414709 RLU
HPA Results (RLU) ([2]; GP33 (S. aureus, mecA(+))): 154183 RLU
HPA Results (RLU) ([2]; GP34 (S. aureus, mecA(−))): 497890 RLU
HPA Results (RLU) ([2]; GP35 (S. aureus, mecA(+))): 484580 RLU
HPA Results (RLU) ([2]; GP36 (S. aureus, mecA(−))): 356243 RLU
HPA Results (RLU) ([2]; GP37 (S. aureus, mecA(+))): 373448 RLU
HPA Results (RLU) ([2]; GP38 (S. aureus, mecA(+))): 367728 RLU
HPA Results (RLU) ([2]; GP39 (S. aureus, mecA(−))): 268665 RLU
HPA Results (RLU) ([2]; GP40 (S. aureus, mecA(−))): 283200 RLU
HPA Results (RLU) ([2]; Neg Control (Hybridization Buffer)): 3472 RLU
HPA Results (RLU) ([2]; Pos Control GP1217 (S. aureus, mecA(+), MRSA)): 162795 RLU
HPA Results (# positive for indicated probes) ([2]; S. epidermidis, 1 isolate, Oxacillin MIC >16 μg/ml): 0
HPA Results (# positive for indicated probes) ([2]; S. epidermidis, 2 isolates, Oxacillin MIC ≦0.25 μg/ml): 0
HPA Results (# positive for indicated probes) ([2]; S. hemoliticus, 1 isolate, Oxacillin MIC ≦0.25 μg/ml): 0
HPA Results (# positive for indicated probes) ([2]; S. hominis, 1 isolate, Oxacillin MIC ≦0.25 μg/ml): 0
HPA Results (# positive for indicated probes) ([2]; S. hyicus-hyicus, 1 isolate, Oxacillin MIC ≦0.25 μg/ml): 0
HPA Results (# positive for indicated probes) ([2]; S. intermedius, 1 isolate, Oxacillin MIC ≦0.25 μg/ml): 0
HPA Results (# positive for indicated probes) ([2]; S. saprophyticus, 1 isolate, Oxacillin MIC 0.5 μg/ml): 0
HPA Results (# positive for indicated probes) ([2]; S. simulans, 1 isolate, Oxacillin MIC ≦0.25 μg/ml): 0
HPA Results (# positive for indicated probes) ([2]; S. warneri, 1 isolate, Oxacillin MIC ≦0.25 μg/ml): 0
